Source: patent US20240024402A1, “COMPOSITION FOR IMPROVING INSULIN SENSITIVITY, CONTAINING GENTIANA TRIFLORAL PALLAS EXTRACT” (MTHERA PHARMA CO., LTD., priority 2020, published 2024)

Tested on: ogt mRNA
Test: ogt mRNA expression in HepG2 cells cultured with glucose, MGO and other sugars/aldehydes
Format: cell-based
Settings: MGO, 24 hours
Method: The HepG2 cells were cultured in a cell culture medium containing glucose, fructose, methylglyoxal (MGO), glyoxal (GO), glyceraldehyde 3-phosphate (G3P), glyceraldehyde, and glycolaldehyde for 24 hours, respectively, and the expression level of ogt mRNA was measured and shown in FIG. 5.

Q: For `CC(=O)C=O` [MGO, methylglyoxal], which “ogt mRNA expression compared to the control group” value is on record?
A: increased nearly twice
